Values of other authors, collected in patent US20030152525A1, “Stable oral compositions comprising casein phosphopeptide complexes and fluoride” (The Procter & Gamble Company, priority 2002, published 2003).

Conditions: solutions containing 0.1% w/v peptide, various pH, calcium and phosphate concentrations, constant ionic strength; as discussed in WO 98/40406

## Gln^59-Met-Glu-Ala-Glu-Ser(P)-Ile-Ser(P)-Ser(P)-Ser(P)-Glu-Glu-Ile-Val-Pro-Asn-Ser(P)-Val-Glu-Gln-Lys^79 [αs1 (59-79) [1]]
  calcium maximally bound per molecule of peptide: 24 per molecule
  phosphate maximally bound per molecule of peptide: 16 per molecule
